Converted amounts (≈) assume the structure as drawn. “And” between values parts separate entries of the source, which are not always exact repeats. Identical values can stand only once. “Also recorded” adds a separate entry of the source. Like-named read-outs stand apart in the source and are kept apart here.
Columns and labels:
[1] = control rabbits
[2] = Chelation with Al3+ ion in vitro (precipitation with AlCl3); assay type: physicochemical; conditions: for Precipitation (%): drug 50 μM, pH 6.5, 30 min, 24 °C
Protocol: AlCl3 was also dissolved in the same buffer at a concentration of 50 μM, 100 μM, 200 μM, 1 mM, or 2 mM, and each drug solution and AlCl3 solution were mixed at an equal volume. The mixture solution was shaken, stood for 30 min at 24 °C and centrifuged. The supernatant was filtrated through a syringe filter with 0.22 μm of pore size (Millipore, Tokyo, Japan).

[3] = Enzymatic stability in rat 2% liver homogenates; assay type: in vitro ADME; conditions: 37 °C
Protocol: (§1) Briefly, to examine the chemical stability of CFX-EHE, pH 6.5 and pH 7.4 phosphate buffer solutions (PBS) were used. Enzymatic stability of CFX-EHE (the initial concentration was 0.1 mM) was determined at 1, 5, and 15 min after the start of incubation at 37 °C using the following specimen: rat 10% plasma obtained from male Sprague Dawley (SD) rats, rat 2% small intestinal mucosal homogenates, and rat 2% liver homogenates in the same manner as described previously. […].

[4] = system: S. aureus ATCC29213; assay: MIC, agar plate dilution method; assay type: cell-based, Staphylococcus (S.) aureus
Protocol: The bacterial numbers of S. aureus, E. coli, and P. aeruginosa were adjusted to McFarland 0.5 ([…]) with the sterilized isotonic NaCl solution. These bacterial solutions were inoculated in Mueller–Hinton broth containing CFX or CFX-EHE. Facultative anaerobic and aerobic bacteria were cultured under the aerobic condition at 37 °C for 20 h.

[5] = Solubility in pH 2 buffer and 0.1 M Tris-HCl buffer (pH 6.5); assay type: physicochemical; conditions: thermodynamic from solid, 25 °C
Protocol: The mixture was centrifuged at 3000 rpm for 10 min, and the supernatant was filtered through a syringe filter with 0.22 μm of pore size (Millipore, Tokyo, Japan), and the concentrations of the compound in the filtrate were measured by HPLC.

[6] = system: E. coli ATCC25922; assay: MIC, agar plate dilution method; assay type: cell-based, Escherichia (E.) coli
Protocol: The bacterial numbers of S. aureus, E. coli, and P. aeruginosa were adjusted to McFarland 0.5 ([…]) with the sterilized isotonic NaCl solution. […] Facultative anaerobic and aerobic bacteria were cultured under the aerobic condition at 37 °C for 20 h.

[7] = Partition coefficient, chloroform/0.1 M Tris-HCl buffer (pH 6.5); assay type: physicochemical
Protocol: Briefly, chloroform and 0.1 M Tris-HCl buffer (pH 6.5) were mutually saturated before experiments. […] Four milliliters of each drug solution were added to 4 mL of chloroform, and the mixture was vigorously shaken for 30 min at 25 °C. After centrifugation at 3000 rpm for 10 min, the concentration of the compound in both phases was determined by HPLC.

[8] = Enzymatic stability in rat 10% plasma; assay type: in vitro ADME; conditions: 37 °C
Protocol: as §1

[9] = Chemical stability in phosphate buffer solutions; assay type: physicochemical; conditions: 37 °C
Protocol: as §1

[10] = system: P. aeruginosa ATCC27853; assay: MIC, agar plate dilution method; assay type: cell-based, Pseudomonas (P.) aeruginosa
[11] = Enzymatic stability in rat 2% small intestinal mucosal homogenates; assay type: in vitro ADME; conditions: rat 2% mucosal homogenate, 37 °C
Protocol: as §1

[12] = rats; cited from earlier work
[13] = individual rabbits
Text: Rabbits were supplied solid food for rabbits (CR-3M, CLEA Japan, Inc., Tokyo, Japan), and the average amount of CR-3M that each rabbit ingested was 100–110 g/day. CR-3M contains various vitamins and cationic metals including Ca, Mg, and iron (Fe^2+, Fe^3+) in addition to various energy sources. […] Coprophagy was not prevented in control rabbits.
To estimate gastric contents, gastric Ca and Mg concentrations, and gastric pH in the untreated control (not fasted), control (fasted) and EDTA-treated rabbits, rabbits were sacrificed by intraperitoneal injection of an excess amount of pentobarbital. Rabbits were opened along the midline and their stomach was isolated. The stomach contents were taken out into a test tube and weighed, and the suspension was centrifuged at 3000 rpm for 10 min to measure the amount of gastric water. Then, concentrations of the Ca and Mg in the supernatant were measured by using L type Wako Ca (Fujifilm, Tokyo, Japan) and L type Wako Mg N (Fujifilm, Tokyo, Japan), respectively, and an automated clinical chemistry analyzer, TBA-nx360 (Canon, Tokyo, Japan). The pH of gastric water was also determined.

[14] = Mucosal damage after EDTA treatment: oral absorption of FD-4; conditions: >10 mL of 1 mg/mL EDTA 2Na orally, rabbits
Protocol: FD-4 was administered orally by stomach intubation at 10 mg/kg and 10 mL water. Blood (100 μL each) was taken periodically at 0, 0.5, 1, 2, and 4 h after administration from the ear vein. […] The concentrations of FD-4 in plasma were determined by Spectro fluorophotometer RF-1500 (Shimadzu Co., Ltd., Kyoto, Japan) using an excitation and emission wavelength of 480 nm and 520 nm, respectively.

[15] = cited from earlier work; for Rate of adsorption onto solid Al(OH)3: quinolones 50 µM
[16] = mixed-breed dogs, dose of 5 mg/kg; cited from earlier work
[17] = cited from earlier work
[18] = sheep, dose of 2 mg/kg; cited from earlier work
[19] = cited from earlier work; remark: listed apart in the source
[20] = cited from earlier work; remark: listed apart in the source
[21] = rats; cited from earlier work; remark: listed apart in the source
[22] = cited from earlier work; remark: listed apart in the source
[23] = 2% mucosal homogenate, 1 min incubation; cited from earlier work
[24] = 2% liver homogenates, 1 min incubation; cited from earlier work
[25] = 10% plasma, 1 min incubation; cited from earlier work
[26] = gastric water, EDTA-treated rabbits

## O=C(O)c1cn(C2CC2)c2cc(N3CCNCC3)c(F)cc2c1=O [CFX, ciprofloxacin]
[1]; […] iv infusion, LFX 20, CFX 30, TC 10 mg/kg
  β: 0.34 ± 0.04 h⁻¹
[2]; AlCl3 25 μM
  Precipitation (%): 20.4 ± 17.6%
[2]; AlCl3 50 μM
  Precipitation (%): 22.9 ± 16.7%
[2]; AlCl3 100 μM
  Precipitation (%): 39.2 ± 17.7%
[2]; AlCl3 500 μM
  Precipitation (%): 55.5 ± 18.0%
[2]; AlCl3 1 mM
  Precipitation (%): 73.4 ± 2.0%

## CCOC(=O)OC(C)OC(=O)c1cn(C2CC2)c2cc(N3CCNCC3)c(F)cc2c1=O (centres unmarked) [CFX-EHE]
[3]; 1 min
  Hydrolysis (%): 38.4 ± 15.8%
[3]; 5 min
  Hydrolysis (%): 69.5 ± 9.5%
[3]; 15 min
  Hydrolysis (%): 94.8 ± 3.4%
[4]; S. aureus
  MIC of CFX-EHE relative to CFX: more than 10 times
[4]; Staphylococcus aureus, S. aureus ATCC29213, 37 °C, 20 h
  MIC: 4 µg/mL (≈ 8.94 µM)
[5]; aqueous buffer, 0.1 M Tris-HCl buffer (pH 6.5), read-out: Solubility pH 6.5
  solubility at 30 min: 3080 µg/mL (≈ 6880 µM)
[5]; pH 2 buffer adjusted with hydrochloric acid, pH 2, aqueous buffer, read-out: Solubility pH 2.0
  solubility at 30 min: 4280 µg/mL (≈ 9570 µM)
[6]; E. coli
  MIC of CFX-EHE relative to CFX: more than 10 times
[6]; Escherichia coli, E. coli ATCC25922, 37 °C, 20 h
  MIC: 0.5 µg/mL (≈ 1.12 µM)
[7]; chloroform/0.1 M Tris-HCl buffer (pH 6.5), 25 °C
  log PC: 0.79
[7]; chloroform/0.1 M Tris-HCl buffer (pH 6.5), 25 °C, mean of 3
  PC (partition coefficient): 6.12
[7]; chloroform/pH 6.5 buffer
  Apparent PC of CFX-EHE relative to CFX: 13 fold
[8]; 1 min
  Hydrolysis (%): 9.5 ± 9.0%
[8]; 5 min
  Hydrolysis (%): 27.2 ± 1.0%
[8]; 15 min
  Hydrolysis (%): 71.1 ± 17.4%
[9]; 0.1 M PBS (pH 6.5), 1 min
  Hydrolysis (%): 0%
[9]; 0.1 M PBS (pH 6.5), 5 min
  Hydrolysis (%): 0%
[9]; 0.1 M PBS (pH 6.5), 15 min
  Hydrolysis (%): 0%
[9]; 0.1 M PBS (pH 7.4), 1 min
  Hydrolysis (%): 0%
[9]; 0.1 M PBS (pH 7.4), 5 min
  Hydrolysis (%): 0%
[9]; 0.1 M PBS (pH 7.4), 15 min
  Hydrolysis (%): 0%
[10]; P. aeruginosa
  MIC of CFX-EHE relative to CFX: more than 10 times
[10]; Pseudomonas aeruginosa, P. aeruginosa ATCC27853, 37 °C, 20 h
  MIC: 8 µg/mL (≈ 17.9 µM)
[11]; 1 min
  Hydrolysis (%): 20.4 ± 2.7%
[11]; 5 min
  Hydrolysis (%): 59.0 ± 9.2%
[11]; 15 min
  Hydrolysis (%): 85.9 ± 11.5%
[2]; AlCl3 25 μM
  Precipitation (%): 0%
[2]; AlCl3 50 μM
  Precipitation (%): 0%
[2]; AlCl3 100 μM
  Precipitation (%): 0%
[2]; AlCl3 500 μM
  Precipitation (%): 0%

## O=C([O-])CN(CCN(CC(=O)O)CC(=O)O)CC(=O)[O-].[Na+].[Na+] [EDTA 2Na, disodium ethylenediamine tetraacetic acid]
[12]
  Lowest effective dose to increase the permeability of dichloromethylene bisphosphonate: 100 mg/kg
  Minimal effective dose to increase membrane permeability to 4-amino-1-hydroxybutylidene-1,1-bisphosphonate: 10 mg/kg
[13]; EDTA-treated rabbits (free access to 1 mg/mL EDTA 2Na, 10 mL at 1 h before; coprophagy prevented)
  Gastric Contents (g): (3) 13.1 (hair > pellets) g; also recorded: (1) 9.5 (hair > pellets) g; also recorded: (2) 7.8 (hair > pellets) g
[13]; EDTA-treated rabbits
  Gastric pH: 1.3 and 1.6 and 1.2
  Water Contents: 10.5 mL and 6.7 mL and 4.8 mL
[13]; [26]
  Concentrations Ca: 1.9 mg/dL and 2.6 mg/dL and 1.3 mg/dL
  Concentrations Mg: 1.9 mg/dL and 1.6 mg/dL
[14]
  Mucosal damage after EDTA treatment: without causing mucosal damage
[2]; EDTA 2Na 4 mg/mL, 12 mM added to mixture solutions of CFX and AlCl3
  Effect of added EDTA 2Na on precipitation of CFX with AlCl3: completely inhibited

## CCn1cc(C(=O)O)c(=O)c2cc(F)c(N3CCNCC3)nc21 [ENX, enoxacin]
[15]
  Elution rate of adsorbed quinolones with water: 18.3%
  Rate of adsorption onto solid Al(OH)3: 61.0%

## C[C@H]1COc2c(N3CCN(C)CC3)c(F)cc3c(=O)c(C(=O)O)cn1c23 [LFX, levofloxacin]
[16]
  Absolute oral bioavailability: 71.93 ± 9.75%
[17]; 50 μM of AlCl3, same in vitro conditions
  Precipitation percentage: 12.4%
[18]
  Absolute oral bioavailability: 114 ± 27.7%
[19]
  PC: 5.6
[20]; LFX 200–750 mg, CFX 200–1000 mg, TC 250 mg, ref references listed in the discussion section
  Oral bioavailabilities in humans: 70–100% (200–750 mg)
[20]; human, in vivo, iv
  Fecal recovery, % of an intravenous dose: approximately 15%
[20]; human, in vivo, po, 200 mg
  Oral bioavailability: 69 ± 7%
[20]; human, in vivo, po, 250 mg
  Oral bioavailability: 79 ± 47%
[20]; human, in vivo, po, 500 mg
  Oral bioavailability: 82 ± 13%
[20]; human, in vivo, po
  Oral bioavailability: approximately 70%
[20]; humans, review article
  Oral bioavailability: approximately 100%
[1]; iv infusion
  Total plasma clearance (CLtotal), Doseiv/AUC0–∞: 13.7 mL/min/kg
[21]
  Dose absorbed as the intact form from the intestinal tract into the portal system: approximately 90%
[15]
  Elution rate of adsorbed quinolones with water: 17.9%
  Rate of adsorption onto solid Al(OH)3: 48.1%

## CCOC(=O)OC(C)OC(=O)c1cn2c3c(c(N4CCN(C)CC4)c(F)cc3c1=O)OC[C@@H]2C (some centres unmarked) [LFX-EHE, levofloxacin-ethoxycarbonyl 1-ethyl hemiacetal ester]
[22]
  Solubility at pH 2.0: 16.54 mg/mL
[23]
  Average hydrolysis %: 17.4%
[17]; 1 mM of AlCl3 (drug: AlCl3 = 1:20)
  Precipitation in the presence of AlCl3: not precipitated
[24]
  Average hydrolysis %: 17.7%
[19]
  PC: 75.2
  PC (lipophilicity) of LFX-EHE relative to LFX: 13 fold
[25]
  Average hydrolysis %: 8.2%

## CC1COc2c(N3CCN(C)CC3)c(F)cc3c(=O)c(C(=O)O)cn1c23 (centres unmarked) [OFX, ofloxacin]
[15]
  Elution rate of adsorbed quinolones with water: 20.9%
  Rate of adsorption onto solid Al(OH)3: 47.2%

Reference: PMC10301896 (Pharmaceutics, 2023)
